Results from US8415469B2, “Compounds and methods for kinase modulation, and indications therefor” (Plexxikon Inc., priority 2005, dated 2013).

How the values were obtained:
Format in all cases: biochemical
B-Raf V600E = target: T1, B-Raf V600E (Homo sapiens, UniProt P15056, V600E); assay: AlphaScreen kinase assay, B-Raf V600E; conditions: read-out: IC50, activity toward kinase B-Raf V600E
T1 construct: P4254. pFastBacBD-CDC37 BRAF D437-K722-X, V600E; His6 with pFastBac HT leader (TEV site) (N); made in house; host or cells: Sf9 (baculovirus; chaperone CDC37 co-expressed)

B-Raf = target: T2, B-Raf (Homo sapiens, UniProt P15056); assay: AlphaScreen kinase assay, B-Raf; conditions: read-out: IC50, activity toward kinase B-Raf
T2 construct: purchased Upstate Biotechnology

Fms = target: T3, Fms (Homo sapiens, UniProt P07333); assay: AlphaScreen kinase assay, Fms; conditions: read-out: IC50, activity toward kinase Fms
T3 construct: purchased Upstate Biotechnology

FGFR1 = target: T4, FGFR1 (Homo sapiens, UniProt P11362, C488A/C584S); assay: AlphaScreen kinase assay, FGFR1; conditions: read-out: IC50, activity toward kinase FGFR
T4 construct: P1351.pET N6 BI-PTP FGFR A458-E765-X C488A, C584S; made in house; host or cells: E. coli (PTP1B co-expressed)

Kit = target: T5, Kit (Homo sapiens, UniProt P10721); assay: AlphaScreen kinase assay, Kit; conditions: read-out: IC50, activity toward kinase Kit
T5 construct: P1332.N6 BI PTP KIT M552-K948-X COD; His6 (N); made in house; host or cells: E. coli (PTP1B co-expressed)
T5 sequence (P10721 with tags, fused parts or gaps): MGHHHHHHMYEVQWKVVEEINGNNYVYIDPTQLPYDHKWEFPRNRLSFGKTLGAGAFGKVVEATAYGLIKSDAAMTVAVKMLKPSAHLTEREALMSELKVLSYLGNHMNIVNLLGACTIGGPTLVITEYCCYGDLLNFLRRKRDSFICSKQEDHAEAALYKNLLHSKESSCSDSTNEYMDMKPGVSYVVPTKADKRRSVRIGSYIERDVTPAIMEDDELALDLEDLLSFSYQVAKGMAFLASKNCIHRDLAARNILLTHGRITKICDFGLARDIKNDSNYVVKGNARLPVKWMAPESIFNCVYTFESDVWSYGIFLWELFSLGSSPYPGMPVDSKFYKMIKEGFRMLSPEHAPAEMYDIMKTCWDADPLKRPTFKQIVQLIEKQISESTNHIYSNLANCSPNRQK

T3 sequence (P07333 20-972): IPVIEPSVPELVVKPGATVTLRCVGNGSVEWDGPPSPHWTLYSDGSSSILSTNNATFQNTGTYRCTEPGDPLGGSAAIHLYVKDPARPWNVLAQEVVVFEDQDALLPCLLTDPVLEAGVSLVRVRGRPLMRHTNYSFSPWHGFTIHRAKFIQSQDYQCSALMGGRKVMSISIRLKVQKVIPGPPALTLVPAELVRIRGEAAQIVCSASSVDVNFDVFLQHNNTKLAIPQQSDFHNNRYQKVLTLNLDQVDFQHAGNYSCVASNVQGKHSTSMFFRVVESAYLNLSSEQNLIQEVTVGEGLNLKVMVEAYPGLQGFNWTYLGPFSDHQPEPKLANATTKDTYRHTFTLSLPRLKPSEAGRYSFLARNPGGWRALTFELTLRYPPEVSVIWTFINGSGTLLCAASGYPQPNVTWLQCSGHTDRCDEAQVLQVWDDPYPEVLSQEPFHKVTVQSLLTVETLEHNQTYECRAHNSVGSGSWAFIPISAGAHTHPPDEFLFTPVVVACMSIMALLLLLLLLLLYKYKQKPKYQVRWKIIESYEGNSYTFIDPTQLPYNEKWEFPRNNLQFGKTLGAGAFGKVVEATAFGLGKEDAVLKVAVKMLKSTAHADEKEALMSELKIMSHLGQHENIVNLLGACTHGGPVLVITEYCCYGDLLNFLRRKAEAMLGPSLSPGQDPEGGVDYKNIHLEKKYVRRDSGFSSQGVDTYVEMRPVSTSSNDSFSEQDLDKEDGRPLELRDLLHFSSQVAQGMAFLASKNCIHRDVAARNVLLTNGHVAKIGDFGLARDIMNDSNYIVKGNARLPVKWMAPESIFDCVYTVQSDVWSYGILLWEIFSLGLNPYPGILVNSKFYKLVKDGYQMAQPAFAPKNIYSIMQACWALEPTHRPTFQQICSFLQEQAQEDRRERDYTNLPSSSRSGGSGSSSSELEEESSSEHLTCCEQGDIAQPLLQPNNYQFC
T1 sequence (P15056 with tags, fused parts or gaps V600E): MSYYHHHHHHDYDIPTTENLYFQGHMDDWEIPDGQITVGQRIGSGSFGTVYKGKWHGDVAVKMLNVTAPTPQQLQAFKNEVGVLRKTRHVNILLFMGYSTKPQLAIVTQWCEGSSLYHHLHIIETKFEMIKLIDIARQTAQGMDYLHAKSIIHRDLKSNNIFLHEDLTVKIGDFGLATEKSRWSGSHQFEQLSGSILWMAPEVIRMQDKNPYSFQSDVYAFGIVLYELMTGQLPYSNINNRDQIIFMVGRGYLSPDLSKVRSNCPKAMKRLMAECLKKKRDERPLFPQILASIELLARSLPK
T2 sequence (P15056 whole entry): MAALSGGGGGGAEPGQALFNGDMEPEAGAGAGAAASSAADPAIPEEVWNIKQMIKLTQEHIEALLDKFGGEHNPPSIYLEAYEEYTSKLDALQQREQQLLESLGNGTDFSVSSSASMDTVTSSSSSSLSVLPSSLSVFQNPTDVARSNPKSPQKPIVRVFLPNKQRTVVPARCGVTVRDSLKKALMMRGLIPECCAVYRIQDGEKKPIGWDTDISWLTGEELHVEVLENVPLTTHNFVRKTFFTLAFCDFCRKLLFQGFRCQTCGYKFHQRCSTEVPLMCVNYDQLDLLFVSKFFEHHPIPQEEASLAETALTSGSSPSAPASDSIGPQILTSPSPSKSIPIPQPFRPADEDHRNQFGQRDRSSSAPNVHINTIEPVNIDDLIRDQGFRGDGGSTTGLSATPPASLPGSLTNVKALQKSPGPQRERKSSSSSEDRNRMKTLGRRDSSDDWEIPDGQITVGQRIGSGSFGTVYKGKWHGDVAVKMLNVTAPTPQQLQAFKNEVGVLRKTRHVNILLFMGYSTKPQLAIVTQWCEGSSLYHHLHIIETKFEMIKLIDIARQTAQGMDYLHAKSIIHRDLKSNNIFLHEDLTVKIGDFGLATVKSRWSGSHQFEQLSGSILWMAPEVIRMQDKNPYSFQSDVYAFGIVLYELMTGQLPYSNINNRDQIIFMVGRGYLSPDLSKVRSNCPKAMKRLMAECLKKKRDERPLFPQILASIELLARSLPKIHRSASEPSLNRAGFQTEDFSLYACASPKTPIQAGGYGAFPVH
T4 sequence (P11362 458-765 C488A/C584S): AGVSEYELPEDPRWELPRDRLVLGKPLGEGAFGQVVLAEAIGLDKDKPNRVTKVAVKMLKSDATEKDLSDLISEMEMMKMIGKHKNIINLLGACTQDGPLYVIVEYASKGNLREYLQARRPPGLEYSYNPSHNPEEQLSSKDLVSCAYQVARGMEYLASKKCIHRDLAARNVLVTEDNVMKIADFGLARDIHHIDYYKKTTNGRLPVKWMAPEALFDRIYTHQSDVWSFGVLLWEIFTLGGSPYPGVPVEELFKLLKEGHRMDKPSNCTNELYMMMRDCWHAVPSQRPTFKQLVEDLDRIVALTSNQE

| IC50 (B-Raf V600E) | IC50 (B-Raf) | IC50 (Fms) | IC50 (FGFR1) | IC50 (Kit) | Structure (SMILES) |
| --- | --- | --- | --- | --- | --- |
| ≤ 10 µM | ≤ 10 µM |  |  |  | CC(C)(C)OC(=O)N(Cc1ccc(Cl)cc1)c1ccc(C(O)c2c[nH]c3ncc(-c4cccnc4)cc23)cn1 (centres unmarked) [Compound P-0414] |
| ≤ 10 µM |  | ≤ 10 µM | ≤ 10 µM |  | Clc1ccc(CNc2ccc(Cc3c[nH]c4ncc(Br)cc34)cn2)cc1 [Compound P-0420] |
| ≤ 10 µM | ≤ 10 µM |  |  |  | CCCS(=O)(=O)Nc1ccc(F)c(Cc2c[nH]c3ncc(N4CCC(C)CC4)cc23)c1F [Compound P-0984, Propane-1-sulfonic acid {2,4-difluoro-3-[5-(4-methyl-piperidin-1-yl)-1H-pyrrolo[2,3-b]pyridin-3-ylmethyl]-phenyl}-amide] |
|  |  | ≤ 10 µM |  | ≤ 10 µM | c1ccc(Oc2ccccc2Nc2c[nH]c3ncccc23)cc1 [Compound P-1501, (2-Phenoxy-phenyl)-(1H-pyrrolo[2,3-b]pyridin-3-yl)-amine] |
|  |  | ≤ 10 µM |  | ≤ 10 µM | Clc1cccc(Cl)c1Cc1c[nH]c2ncccc12 [Compound P-1483, 3-(2,6-Dichloro-benzyl)-1H-pyrrolo[2,3-b]pyridine] |
|  |  | ≤ 10 µM | ≤ 10 µM | ≤ 10 µM | CSc1nccc(-c2ccc(S(=O)(=O)NCc3c[nH]c4ncccc34)s2)n1 [Compound P-0854] |
|  |  | ≤ 10 µM | ≤ 10 µM |  | COc1cccc(C(=O)c2c[nH]c3ncc(-c4ccc(Cl)cc4)cc23)c1F [Compound P-1333, [5-(4-Chloro-phenyl)-1H-pyrrolo[2,3-b]pyridin-3-yl]-(2-fluoro-3-methoxy-phenyl)-methanone] |
|  |  | ≤ 10 µM | ≤ 10 µM | ≤ 10 µM | CS(=O)(=O)Nc1cccc(-c2cnc3[nH]cc(C(=O)c4cc(OC(F)F)cc(OC(F)F)c4)c3c2)c1 [Compound P-1522, N-{3-[3-(3,5-Bis-difluoromethoxy-benzoyl)-1H-pyrrolo[2,3-b]pyridin-5-yl]-phenyl}-methanesulfonamide] |
|  |  | ≤ 10 µM | ≤ 10 µM | ≤ 10 µM | OC(c1c(F)ccc(OC(F)F)c1F)c1c[nH]c2ncc(Br)cc12 (centres unmarked) [Compound P-1525] |
|  | ≤ 10 µM |  |  |  | OC(c1c(F)ccc(N(Cc2ccccc2)Cc2ccccc2)c1F)c1c[nH]c2ncc(-c3cccnc3)cc12 (centres unmarked) [Compound P-1080] |
| ≤ 10 µM | ≤ 10 µM |  |  |  | c1ccc(CCc2c[nH]c3ncccc23)cc1 [Compound P-0200] |
|  |  | ≤ 10 µM | ≤ 10 µM |  | COc1cccc(C(=O)c2c[nH]c3ncc(-c4cc(F)cc(F)c4)cc23)c1F [Compound P-1334, [5-(3,5-Difluoro-phenyl)-1H-pyrrolo[2,3-b]pyridin-3-yl]-(2-fluoro-3-methoxy-phenyl)-methanone] |
| ≤ 10 µM |  | ≤ 10 µM | ≤ 10 µM |  | Cc1nc(NCc2ccc(Cl)cc2)ccc1Cc1c[nH]c2ncccc12 [Compound P-0927] |
|  |  | ≤ 10 µM | ≤ 10 µM |  | Fc1ccccc1Cc1c[nH]c2ncc(Br)cc12 [Compound P-1342] |
|  |  | ≤ 10 µM | ≤ 10 µM |  | COc1cccc(C(=O)c2c[nH]c3ncc(-c4ccc(C#N)cc4)cc23)c1F [Compound P-1335, 4-[3-(2-Fluoro-3-methoxy-benzoyl)-1H-pyrrolo[2,3-b]pyridin-5-yl]-benzonitrile] |
| ≤ 10 µM | ≤ 10 µM |  |  |  | Oc1cccc(Nc2ccnc3[nH]ccc23)c1 [Compound P-0980] |
|  |  | ≤ 10 µM | ≤ 10 µM |  | COc1cccc(Cc2c[nH]c3ncc(-c4cccc(C(F)(F)F)c4)cc23)c1F [Compound P-1325, 3-(2-Fluoro-3-methoxy-benzyl)-5-(3-trifluoromethyl-phenyl)-1H-pyrrolo[2,3-b]pyridine] |
|  |  | ≤ 10 µM | ≤ 10 µM |  | COc1cccc(C(=O)c2c[nH]c3ncc(-c4cccc(OC(F)(F)F)c4)cc23)c1F [Compound P-1344, (2-Fluoro-3-methoxy-phenyl)-[5-(3-trifluoromethoxy-phenyl)-1H-pyrrolo[2,3-b]pyridin-3-yl]-methanone] |
|  |  | ≤ 10 µM | ≤ 10 µM |  | COc1cccc(Cc2c[nH]c3ncc(-c4cccc(OC(F)(F)F)c4)cc23)c1F [Compound P-1328, 3-(2-Fluoro-3-methoxy-benzyl)-5-(3-trifluoromethoxy-phenyl)-1H-pyrrolo[2,3-b]pyridine] |
|  |  | ≤ 10 µM |  |  | OC(c1ccc(NCc2ccc(C(F)(F)F)cc2)nc1)c1c[nH]c2ncccc12 (centres unmarked) [Compound P-0291] |
|  |  | ≤ 10 µM | ≤ 10 µM |  | COc1cccc(Cc2c[nH]c3ncc(-c4cccc(Cl)c4)cc23)c1F [Compound P-1326, 5-(3-Chloro-phenyl)-3-(2-fluoro-3-methoxy-benzyl)-1H-pyrrolo[2,3-b]pyridine] |

| IC50 (B-Raf V600E) | IC50 (B-Raf) | IC50 (Fms) | IC50 (FGFR1) | IC50 (Kit) | Structure (SMILES) |
| --- | --- | --- | --- | --- | --- |
|  |  | ≤ 10 µM |  | ≤ 10 µM | COc1ccc(Nc2c[nH]c3ncccc23)cc1 [Compound P-1488, (4-Methoxy-phenyl)-(1H-pyrrolo[2,3-b]pyridin-3-yl)-amine] |
|  |  | ≤ 10 µM | ≤ 10 µM |  | COc1cc(C(OC)c2c[nH]c3ncccc23)ccc1OCc1ccc(Cl)cc1 (centres unmarked) [Compound P-1340] |
|  |  | ≤ 10 µM | ≤ 10 µM |  | COc1cccc(C(=O)c2c[nH]c3ncc(-c4cccc(Cl)c4)cc23)c1F [Compound P-1332, [5-(3-Chloro-phenyl)-1H-pyrrolo[2,3-b]pyridin-3-yl]-(2-fluoro-3-methoxy-phenyl)-methanone] |
| ≤ 10 µM | ≤ 10 µM |  |  |  | Cc1ccc(S(=O)(=O)Nc2ccc(F)c(C(=O)c3c[nH]c4ncc(Cl)cc34)c2F)cc1F [Compound P-1823, N-[3-(5-Chloro-1H-pyrrolo[2,3-b]pyridine-3-carbonyl)-2,4-difluoro-phenyl]-3-fluoro-4-methyl-benzenesulfonamide] |
|  |  | ≤ 10 µM | ≤ 10 µM | ≤ 10 µM | Clc1ccc(Cc2c[nH]c3ncccc23)cc1 [Compound P-0233] |
|  |  | ≤ 10 µM | ≤ 10 µM |  | COc1cccc(Cc2c[nH]c3ncc(-c4cccc(F)c4)cc23)c1F [Compound P-1327, 3-(2-Fluoro-3-methoxy-benzyl)-5-(3-fluoro-phenyl)-1H-pyrrolo[2,3-b]pyridine] |
|  |  | ≤ 10 µM |  |  | Cn1cnnc1-c1cccc(Nc2c[nH]c3ncccc23)c1 [Compound P-1504, [3-(4-Methyl-4H-[1,2,4]triazol-3-yl)-phenyl]-(1H-pyrrolo[2,3-b]pyridin-3-yl)-amine] |
|  |  | ≤ 10 µM |  | ≤ 10 µM | COc1cc(Nc2c[nH]c3ncccc23)cc(OC)c1 [Compound P-1503, (3,5-Dimethoxy-phenyl)-(1H-pyrrolo[2,3-b]pyridin-3-yl)-amine] |
|  |  | ≤ 10 µM |  | ≤ 10 µM | O=C(c1cccc(C(F)(F)F)c1)c1c[nH]c2ncc(-c3cccnc3)cc12 [Compound P-1410, (5-Pyridin-3-yl-1H-pyrrolo[2,3-b]pyridin-3-yl)-(3-trifluoromethyl-phenyl)-methanone] |
|  | ≤ 10 µM |  |  |  | CCCS(=O)(=O)Nc1ccc(F)c(C(=O)c2c[nH]c3ncc(Br)cc23)c1 [Compound P-1431] |
|  | ≤ 10 µM |  |  |  | COC(=O)c1cccc(Nc2ccnc3[nH]ccc23)c1 [Compound P-0932] |
|  |  | ≤ 10 µM |  | ≤ 10 µM | CS(=O)(=O)Nc1cccc(Nc2c[nH]c3ncccc23)c1 [Compound P-1498, N-[3-(1H-Pyrrolo[2,3-b]pyridin-3-ylamino)-phenyl]-methanesulfonamide] |
|  |  | ≤ 10 µM | ≤ 10 µM | ≤ 10 µM | COc1ccc(Cc2c[nH]c3ncc(-c4ccsc4)cc23)cc1OC [Compound P-0563] |
| ≤ 10 µM |  | ≤ 10 µM | ≤ 10 µM | ≤ 10 µM | CCCC(=O)Nc1ccc(F)c(Cc2c[nH]c3ncc(OC)cc23)c1F [Compound P-1369] |
| ≤ 10 µM |  | ≤ 10 µM | ≤ 10 µM | ≤ 10 µM | O=C(c1cccc(OC(F)F)c1)c1c[nH]c2ncc(-c3ccccc3)cc12 [Compound P-1409, (3-Difluoromethoxy-phenyl)-(5-phenyl-1H-pyrrolo[2,3-b]pyridin-3-yl)-methanone] |
|  |  | ≤ 10 µM |  |  | CN(c1ccc(Cl)c(Cl)c1)c1c[nH]c2ncccc12 [Compound P-1494, (3,4-Dichloro-phenyl)-methyl-(1H-pyrrolo[2,3-b]pyridin-3-yl)-amine] |
|  |  | ≤ 10 µM |  |  | COc1cccc(Cc2c[nH]c3ncccc23)c1 [Compound P-0239] |
|  |  | ≤ 10 µM |  |  | COC(c1c(F)ccc(NC(=O)Nc2ccc(F)cc2)c1F)c1c[nH]c2ncc(Cl)cc12 (centres unmarked) [Compound P-1653] |
|  |  | ≤ 10 µM |  |  | COc1cccc(Cc2c[nH]c3ncc(-c4ccc(C(F)(F)F)cc4)cc23)c1F [Compound P-1324, 3-(2-Fluoro-3-methoxy-benzyl)-5-(4-trifluoromethyl-phenyl)-1H-pyrrolo[2,3-b]pyridine] |
| ≤ 10 µM |  | ≤ 10 µM |  |  | O=C(c1ccc2c(c1)OC(F)(F)O2)c1c[nH]c2ncc(-c3cccnc3)cc12 [Compound P-1558, (2,2-Difluoro-benzo[1,3]dioxol-5-yl)-(5-pyridin-3-yl-1H-pyrrolo[2,3-b]pyridin-3-yl)-methanone] |
|  |  | ≤ 10 µM |  | ≤ 10 µM | FC(F)(F)Oc1cccc(Nc2c[nH]c3ncccc23)c1 [Compound P-1493, (1H-Pyrrolo[2,3-b]pyridin-3-yl)-(3-trifluoromethoxy-phenyl)-amine] |
